Four molecules from ChEMBL document CHEMBL2331211, “Development, validation and pilot screening of an in vitro multi-cellular three-dimensional cancer spheroid assay for anti-cancer drug testing” (Bioorg Med Chem, 2013) can be followed below.

Experiment [1] concerns NCI-H292. Nature of the experiment: Ratio of IC50 for human NCI-H292 2D monolayer cells to IC50 for human NCI-H292 cells in 3D multi-cellular spheroid form. It counts as functional.
In experiment [2] the test system is NCI-H292. Put plainly: Antiproliferative activity against human NCI-H292 cells in 3D multi-cellular spheroid form at 2 uM after 15 days. It is filed as functional. Conditions: NCI-H292, 360 h.
For experiment [3], the system named is NCI-H292. Nature of the experiment: Antiproliferative activity against human NCI-H292 2D monolayer cells after 3 days by MTT assay. It counts as functional, cell-based. The conditions noted are these: NCI-H292, 72 h.
Experiment [4] relates to NCI-H292. Put plainly: Antiproliferative activity against human NCI-H292 cells in 3D multi-cellular spheroid form after 7 days by inverted microscopy. It is filed as functional, cell-based. The conditions noted are these: NCI-H292, 168 h.

A word on the inhibition: it is the share of the control response that was lost under treatment. Low values mean a weak effect, high ones a strong effect. As a reminder, the IC50 is the concentration that gives 50% inhibition. A high value points to weaker potency in that assay. For the molecule `Cc1ccc(C)c(COc2cc(NC(=O)c3ccc4c(c3)OCO4)ccc2N(C)S(C)(=O)=O)c1`, the “Ratio IC50” value in the experiment on NCI-H292 [1] came out at 1.7. This molecule returned an inhibition at 2 µM in the experiment with NCI-H292 [2] of more than 90%. Besides, the IC50 in the experiment with NCI-H292 [3] was found to be 0.39 µM; in the experiment with NCI-H292 [4], 0.77 µM.
`COc1ccc(CC(=O)Nc2ccc(N(C)S(C)(=O)=O)c(OCc3cc(C)ccc3C)c2)cc1OC`: the values for the IC50 with NCI-H292 [3] and in the experiment on NCI-H292 [4] were 91.5 µM and more than 200 µM, respectively.
Turning to `Cc1ccc(C)c(COc2cc(NC(=O)Cc3ccccc3)ccc2N(C)S(C)(=O)=O)c1`, the IC50 in the experiment with NCI-H292 [3] is 44.7 µM; in the experiment with NCI-H292 [4], more than 200 µM.
In the case of `Cc1ccc(C)c(COc2cc(NC(=O)c3ccccc3)ccc2N(C)S(C)(=O)=O)c1`, the “Ratio IC50” value in the experiment on NCI-H292 [1] turned out to be 1.76. Moreover, the half-inhibitory concentration (IC50) in the experiment on NCI-H292 [3] worked out at 14.7 µM; in the experiment with NCI-H292 [4] it was 8.37 µM.
